Laboratory results reported in PMC9975351 (Frontiers in Pharmacology, 2023).
Read-outs that look alike come from different tables or passages of the source.

Key:
[1] = in vitro; format: in vitro ADME, human
Procedure: Metabolic stability of GRL 0617 and formation of M1 and M3 were evaluated using Silensome control, Silensome CYP2D6 and Silensome CYP3A4 incubated with 1 or 10 µM GRL 0617 in the presence of NADPH. Other metabolites were detected less than 1% of parent. […] CYP2D6 played an exclusive role in the formation of M2, but the reactions were not saturated in the concentration range used in this study and thus, the calculated Kcat, and Km were out of the experiment condition.
In addition, the contribution of specific isoform using Silensomes were evaluated, and calculated parameters were shown in Supplemental Figure S4 and Table 4. […] The contribution of specific CYP 3A4 or CYP2D6 was calculated to be 79.6% or 21.8%, respectively, using equation as equation below. Calculated % CYP isoform contribution = CLintcontrol−ClintINH ⁄ CLintcontrol ([Bohnert et al., 2016]).
incubated in Silensome control, Silensome CYP2D6, and Silensome CYP3A4 with NADPH for 0, 10,
15, 30, 45, 60, or 120 min. The remaining percentages of GRL 0617 are expressed as mean ± SD (n=3).
(1 picture or pasted object on this page, not shown here)

[2] = test system: other CYP isoforms (CYP1A2, 2A6, 2B6, 2C8, 2C9, 2E1); assay: Reaction phenotyping with other recombinant CYP isoforms; format: in vitro ADME, human; settings: 1 µM, 50 pmol/mL of each other recombinant CYP isoform, NADPH, 60 min
Procedure: (§1) Reactions were conducted in triplicate using 0.1 M PPB (pH 7.4) in eight-well tube strips in an 8 × 12 rack. […] The mixture was pre-incubated at 37°C with shaking at approximately 100 rpm for 5 min. Reactions were initiated by the addition of the NADPH-regenerating system and quenched with 200 µL ice-cold acetonitrile containing 50 nM CBZ. The samples were centrifuged at 1,000 × g and 4°C for 20 min, and the supernatants were subjected to LC-QTOF HRMS. […] The reaction was incubated, initiated, terminated, centrifuged then analyzed using the same method described above.
(§2) Reaction phenotyping is the identification of isoforms involved in drug metabolism and is important for the decipherment of drug biotransformation pathways and understanding of possible drug-drug interactions. M6, M7, and M8 were also detected in recombinant CYP incubations.

[3] = Metabolic stability and metabolite formation in pooled human liver microsomes with NADPH and/or UDPGA; format: in vitro ADME; settings: for Concentration remaining, % of the initial concentration: 1 µM, HLMs; for Hepatic clearance CLh / CLint scaled at 1 µM: in vitro-in vivo extrapolation, well-stirred model; for half-life at 1 µM / microsomal CLint at 1 µM / CLint scaled at 1 µM: human, microsomes; for half-life at 1 µM: pH 7.4, 1 µM compound, read-out: Half-life; for microsomal CLint at 1 µM: read-out: Intrinsic clearance (in vitro) Clint; for CLint scaled at 1 µM: read-out: Intrinsic clearance (in vivo) CLint
Procedure: Microsomal incubation was conducted in triplicate using 0.1 M potassium phosphate buffer (PPB, pH 7.4) in eight-well tube strips in an 8 × 12 rack (1.2 mL; VWR, Emeryville, CA, United States). […] The mixture was pre-incubated at 37°C with shaking at approximately 100 rpm for 5 min. UGT glucuronidation was performed with HLMs (1 mg/mL) and alamethicin (25 μg/mg microsomal protein) in a 100-mM PPB (pH 7.4) solution on ice for 15 min. […] CYP, UGT, and combined reactions were initiated by addition of the NADPH regenerating system, UDPGA (1 mM), and both, respectively. […] The incubation mixtures were then centrifuged at 2,000 × g and 4°C for 20 min, and the supernatants were analyzed by LC-QTOF HRMS.
The incubation mixtures were pre-incubated at 37°C in a shaking water bath at approximately 100 rpm for 5 min. Reactions were initiated by the addition of an NADPH-regenerating system. The reaction was terminated, centrifuged then analyzed using the same method described above.
In the microsomal stability analysis, degradation half-life (t½) values were calculated using the following equation: t½=0.693/k where k is the first-order degradation rate constant, estimated by one-phase exponential-decay non-linear regression of the degradation time-course data using Graph Pad Prism 8.0 (Graph Pad Software Inc., San Diego, CA, United States). In vitro metabolic stability parameters, microsomal intrinsic clearance (CLint,mic), apparent intrinsic clearance (CL′int), and hepatic clearance (CLh), were calculated according to the well-stirred model approach ([Pang and Rowland, 1977]; [Baranczewski et al., 2006]). The apparent kinetic parameters of GRL0617 metabolism were determined by fitting a one-enzyme Michaelis-Menten equation. […] All data are presented as mean ± SD. Data were compared between groups using the unpaired Student’s t-test. The significance level was set at p < 0.05, unless indicated otherwise.

[4] = biological target: CYP2D6 (Homo sapiens, UniProt P10635); settings: pooled HLMs, substrate cocktail
Procedure: The drug–drug interaction potential was evaluated using a CYP cocktail assay that involved microsomal incubation and NADPH, as described elsewhere ([Lee et al., 2012]). […] The first reactions were initiated by NADPH addition, and each mixture was incubated in a shaking water bath at 37°C for 30 min. The final incubation was performed for 10 min with a total volume of 200 µL by adding substrates (tolbutamide (set B) as a CYP2C9 selective substrate, midazolam (set A) and testosterone (set B) as CYP3A4 selective substrates) and NADPH. The reaction was stopped and quenched by adding 200 µL of ice-cold acetonitrile containing 50 nM CBZ as internal standard, then centrifuged at 3,000 x g for 20 min. The supernatants were injected in LC-QTOF system. IC50 shift values were calculated as the ratio of the IC50 value obtained after pre-incubation without NADPH divided by the IC50 value obtained after 30 min incubation with NADPH.
The LC-QTOF system consisted of an Exion AD LC device (AB Sciex, Framingham, MA, United States) and a TripleTOF 6,600 + system (AB Sciex) equipped with an IonDrive Turbo V source operated in positive TOF information-dependent acquisition (IDA) MS2 scan mode. The TOF scan dwell time was 50 ms, and the 20 × IDA MS2 scan time was acquired with a 30-ms dwell time. […]

[5] = biological target: T1, CYP3A4 (Homo sapiens, UniProt P08684); assay: Reaction phenotyping with recombinant CYP3A4; format: in vitro ADME; settings: 1 µM, 50 pmol/mL recombinant CYP3A4, NADPH, 60 min, vs control
T1 construct: purchased Cypex (Dundee, UK); host or cells: bactosomes (bacterial membranes)
Procedure: as §1, §2

Sequence of CYP2D6 (P10635 whole entry): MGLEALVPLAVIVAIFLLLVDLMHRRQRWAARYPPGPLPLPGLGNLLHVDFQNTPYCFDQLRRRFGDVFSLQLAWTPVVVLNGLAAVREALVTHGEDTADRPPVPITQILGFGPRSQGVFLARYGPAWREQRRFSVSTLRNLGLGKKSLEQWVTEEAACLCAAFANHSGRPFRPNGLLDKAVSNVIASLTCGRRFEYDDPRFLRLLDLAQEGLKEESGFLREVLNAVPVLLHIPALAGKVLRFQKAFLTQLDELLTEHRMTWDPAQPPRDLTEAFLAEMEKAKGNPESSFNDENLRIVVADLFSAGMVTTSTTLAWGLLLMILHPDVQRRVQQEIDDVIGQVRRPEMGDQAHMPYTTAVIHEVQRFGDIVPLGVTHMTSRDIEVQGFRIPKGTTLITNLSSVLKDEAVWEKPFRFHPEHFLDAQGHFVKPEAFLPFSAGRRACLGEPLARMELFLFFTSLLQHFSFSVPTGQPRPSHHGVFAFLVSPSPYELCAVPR
T1 sequence (P08684 whole entry): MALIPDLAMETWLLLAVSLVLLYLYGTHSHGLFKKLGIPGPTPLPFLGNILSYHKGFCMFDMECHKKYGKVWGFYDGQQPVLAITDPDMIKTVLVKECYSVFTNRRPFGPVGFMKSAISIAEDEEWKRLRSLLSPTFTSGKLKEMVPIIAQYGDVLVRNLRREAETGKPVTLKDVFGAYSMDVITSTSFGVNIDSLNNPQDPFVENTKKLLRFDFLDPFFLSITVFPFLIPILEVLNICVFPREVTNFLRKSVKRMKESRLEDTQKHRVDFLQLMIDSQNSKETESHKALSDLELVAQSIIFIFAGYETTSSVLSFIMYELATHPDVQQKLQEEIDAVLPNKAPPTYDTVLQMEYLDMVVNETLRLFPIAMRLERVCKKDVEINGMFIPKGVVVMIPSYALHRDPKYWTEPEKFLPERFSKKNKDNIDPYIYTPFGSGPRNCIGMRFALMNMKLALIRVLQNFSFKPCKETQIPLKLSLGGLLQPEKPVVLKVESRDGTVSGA

Cc1ccc(N)cc1C(=O)N[C@H](C)c1cccc2ccccc12 [GRL0617, 5-amino-2-methyl-N-[(1R)-1-(1-naphthalenyl)ethyl]benzamide]
Contribution ([1]; Silensome control (reference)): 100% | half-life at 1 µM ([1]; human, microsomes): 17.4 min | microsomal CLint ([1]; human, microsomes, Silensome control with NADPH, read-out: Intrinsic clearance (in vitro) Clint): 39.8 µL/min/mg | Reduction of GRL0617 level [2]: < 10% | Half-life ([3]; 1 µM compound, 1 mg/mL pooled HLMs with NADPH (phase I)): 26.4 min | Concentration remaining, % of the initial concentration ([3]; 60 min incubation with NADPH): 44.5% ± 5.3% | Concentration remaining, % of the initial concentration ([3]; 60 min incubation with NADPH + UDPGA): 47.2% ± 7.5% | Concentration remaining, % of the initial concentration ([3]; 60 min incubation with UDPGA): 93.4% ± 6.1% | Direct UGT glucuronidation ([3]; HLM with UDPGA only): No direct UGT glucuronidation was detected | Hepatic clearance CLh ([3]; NADPH + UDPGA): 11.1 mL/min/kg | Hepatic clearance CLh ([3]; NADPH): 11.7 mL/min/kg | half-life at 1 µM ([3]; 1 mg/mL pooled HLMs with NADPH (phase I)): < 30 min | half-life at 1 µM ([3]; 1 mg/mL pooled HLMs with NADPH + UDPGA (phase I + II)): 29.5 min | microsomal CLint at 1 µM ([3]; pH 7.4, HLMs with NADPH + UDPGA): 23.5 µL/min/mg | microsomal CLint at 1 µM ([3]; pH 7.4, HLMs with NADPH): 26.3 µL/min/mg | CLint scaled at 1 µM ([3]; pH 7.4, NADPH + UDPGA): 24.1 mL/min/kg | CLint scaled at 1 µM ([3]; pH 7.4, NADPH): 27 mL/min/kg | Concentrations at which CYP2D6 was inhibited [4]: ≥ 50 µM | GRL0617 level remaining [5]: 9.48% ± 1.26%
